Results as given in PMC6972607, “L‐Fucose prevention of renal ischaemia/reperfusion injury in Mice” (The FASEB Journal, 2019).

Target: T1, collectin-11 (CL-11, CL-K1) (Homo sapiens, UniProt Q9BWP8)
T1 construct: gene COLEC11; recombinant homo-oligomer generated by expression of the CL-11 cDNA (isoform a)
Assay: competition ELISA, rCL-11 binding to immobilised yeast invertase

T1 sequence (Q9BWP8 26-271): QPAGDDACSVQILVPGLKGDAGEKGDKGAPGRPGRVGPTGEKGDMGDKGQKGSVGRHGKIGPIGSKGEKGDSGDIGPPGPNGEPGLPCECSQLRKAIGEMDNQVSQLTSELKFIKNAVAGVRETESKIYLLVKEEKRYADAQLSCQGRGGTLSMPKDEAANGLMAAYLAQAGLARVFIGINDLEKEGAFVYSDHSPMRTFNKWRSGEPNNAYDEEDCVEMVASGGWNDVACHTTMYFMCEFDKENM

| SMILES | IC50 |
| --- | --- |
| OC[C@H]1OC(O)[C@@H](O)[C@@H](O)[C@@H]1O (stereo partly drawn) [D-mannose] | 11.8 mM |
| C[C@@H]1OC(O)[C@@H](O)[C@H](O)[C@@H]1O (stereo partly drawn) [L-fucose] | 12.1 mM |
